“And” between values parts separate entries of the source, which are not always exact repeats. Equal entries are not always repeated.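 1) Cells in 96-well plates. 2) Compound, 48 h, 5 concentrations. 3) Linear interpolation between surrounding doses. 4) Unreached endpoint = highest concentration. At the GI50, growth is halved. The concentration for full growth arrest is given as TGI.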
How the values were obtained:
Assay in all cases: DTP human tumour cell line panel, 48 h
M14 melanoma = test system: M14 melanoma
NCI-H23 lung = test system: NCI-H23 lung
NCI-H460 lung = test system: NCI-H460 lung
OVCAR-4 ovarian = test system: OVCAR-4 ovarian
RXF 393 renal = test system: RXF 393 renal
SK-MEL-28 melanoma = test system: SK-MEL-28 melanoma
SR leukemia = test system: SR leukemia
TK-10 renal = test system: TK-10 renal
HL-60(TB) leukemia = test system: HL-60(TB) leukemia
SK-OV-3 ovarian = test system: SK-OV-3 ovarian

SMILES	TGI (M14 melanoma)	TGI (NCI-H23 lung)	TGI (NCI-H460 lung)	TGI (OVCAR-4 ovarian)	TGI (RXF 393 renal)	TGI (SK-MEL-28 melanoma)	TGI (SR leukemia)	TGI (TK-10 renal)	GI50 (HL-60(TB) leukemia)	TGI (HL-60(TB) leukemia)	GI50 (M14 melanoma)	GI50 (NCI-H23 lung)	GI50 (NCI-H460 lung)	GI50 (OVCAR-4 ovarian)	GI50 (RXF 393 renal)	GI50 (SK-MEL-28 melanoma)	GI50 (SK-OV-3 ovarian)	TGI (SK-OV-3 ovarian)	GI50 (SR leukemia)	GI50 (TK-10 renal)
COc1cccc(/C=C2\CCC(C)(CN(C)C)C2=O)c1 (configuration not stated)	> 100 µM	> 100 µM	> 100 µM	> 100 µM	> 100 µM	> 100 µM	> 100 µM	> 100 µM												
Cn1c(/C(C#N)=C/c2ccc3ccccc3c2)cc2ccccc21	> 100 µM	> 100 µM	> 100 µM	> 100 µM	0.474 µM	> 100 µM	> 100 µM	> 100 µM	0.21 µM	0.699 µM	0.104 µM	0.392 µM	0.201 µM	> 100 µM	0.0507 µM	16.6 µM	> 100 µM	> 100 µM	0.114 µM	> 100 µM
C=CCO/N=C/c1cc(NC(=S)c2ccoc2C)ccc1Cl	37.9 µM	26.7 µM		20.6 µM	65.8 µM	> 100 µM	30.9 µM	42.2 µM		46 µM								36.2 µM		
COC1OC(C)C(OCc2ccccc2)C(OS(=O)(=O)c2ccc(C)cc2)C1OS(=O)(=O)c1ccc(C)cc1 (configuration not stated)	> 100 µM	> 100 µM	> 100 µM	> 100 µM	> 100 µM	> 100 µM	> 100 µM			> 100 µM								> 100 µM		
Cn1cc(-c2csc(-c3cn(C)c4ccccc34)n2)c2cnccc21	2.96 µM	3.44 µM	3.49 µM	11.1 µM	3.28 µM	3.21 µM		4.18 µM	1.94 µM	4.09 µM	1.51 µM	1.64 µM	1.79 µM	1.46 µM	1.7 µM	1.77 µM	2.52 µM	6.33 µM		2.25 µM
C[n+]1c2ccccc2cc2c(CNC(CCCN=C(N)N)C(=O)O)cccc21 (configuration not stated)	15.1 µM	18.4 µM	5 µM and 13.9 µM	23.9 µM	1.34 µM and 4.78 µM	3.65 µM	0.468 µM and 0.582 µM	2.07 µM and 2.35 µM	0.187 µM	0.488 µM and 0.882 µM	2.86 µM	4.19 µM	3.42 µM		2.22 µM		6.15 µM	17.9 µM	0.22 µM	0.967 µM
c1ccc(Cn2cnc3ccc(-c4nc(-c5ccc6c(c5)ncn6C5CCCCC5)cn5ccnc45)cc32)cc1		4.49 µM	5.66 µM	> 100 µM			> 100 µM	> 100 µM	2.88 µM	6.65 µM		1.88 µM	2.3 µM	3.06 µM					1.68 µM	3.52 µM
CSc1c(C)c(C)nn1-c1ccccc1	> 100 µM	> 100 µM	> 100 µM	> 100 µM	> 100 µM	> 100 µM		> 100 µM		> 100 µM								> 100 µM		
Cc1cn(C2OC(C)(CO)C(O)C2O)c(=O)[nH]c1=O (configuration not stated)	> 100 µM	> 100 µM	> 100 µM	> 100 µM	> 100 µM	> 100 µM	> 100 µM	> 100 µM										> 100 µM		
Cc1ccc2nc3c(Cl)c(C)c(=O)cc-3sc2c1	> 100 µM	> 100 µM	> 100 µM	> 100 µM	> 100 µM	> 100 µM		> 100 µM		> 100 µM	37.7 µM	23.7 µM	50.3 µM	61.7 µM		> 100 µM	> 100 µM	> 100 µM		> 100 µM
CC(=O)N(C(C)=O)C1=C2c3ccccc3N(S(=O)(=O)c3ccccc3)C2n2c(=O)n(-c3ccccc3)c(=O)n2C1 (configuration not stated)	69.4 µM	95.9 µM	42.3 µM			58.2 µM	39.5 µM	> 100 µM		63.3 µM								> 100 µM		
O=C(c1ccc2ccccc2c1)c1c(C(F)(F)F)n([O-])c2ccc(Cl)cc2[n+]1=O	3.05 µM		3.34 µM	2.72 µM	1.4 µM	3.02 µM	1.34 µM	3.35 µM	1.59 µM	3.29 µM	1.64 µM		1.75 µM	1.39 µM	0.425 µM	1.63 µM	1.75 µM	3.13 µM	0.438 µM	1.81 µM
c1ccc2nc3c(cc4ccccn43)nc2c1	> 100 µM	> 100 µM	> 100 µM		> 100 µM	> 100 µM	> 100 µM	55.1 µM	> 100 µM	> 100 µM	> 100 µM	37.6 µM	> 100 µM		30.1 µM	> 100 µM	97.4 µM	> 100 µM	52.5 µM	8.36 µM
CC(CC(=O)Nc1ccc(NC(=O)CC(C)N=NC(N)=S)cc1)N=NC(N)=S (configuration not stated)	> 100 µM	> 100 µM	> 100 µM	> 100 µM	> 100 µM	> 100 µM	> 100 µM	> 100 µM		> 100 µM										
CCC1=C[C@@H]2CN(C1)Cc1c([nH]c3ccccc13)[C@@](C(=O)OC)(c1cc3c(cc1OC)N(C)[C@H]1[C@@](O)(C(=O)OC)[C@H](OC(C)=O)[C@]4(CC)[C@@H]5C[C@@H]5CN5CC[C@]31[C@@H]54)C2		10.2 µM and 38.4 µM	5.05 µM and 11.6 µM	10.7 µM	11.1 µM	7.96 µM			< 0.005 µM		< 0.005 µM and 0.0119 µM	< 0.005 µM and 0.0492 µM	< 0.005 µM	< 0.005 µM	0.0105 µM	< 0.005 µM	< 0.005 µM		< 0.005 µM	
C#CCC(N)(CO)C(=O)O (configuration not stated)	> 100 µM	> 100 µM	> 100 µM	> 100 µM		> 100 µM	> 100 µM	> 100 µM		> 100 µM								> 100 µM		
O=C1c2cccnc2-c2nc(-c3ccncc3)cc3c2c1nc1ccccc13	31.6 µM	28 µM	19.5 µM		66.7 µM	> 100 µM	> 100 µM	40.2 µM	12.3 µM	89.6 µM	17.8 µM	12.5 µM	6.29 µM		15.6 µM	> 100 µM	> 100 µM	> 100 µM	2.94 µM	19.5 µM

Source: PubChem BioAssay (NCI)
